Laboratory results published in BindingDB's records for doi:10.1111/j.1471-4159.1985.tb08803.x (Lundbeck Ais, 1985).
Where a name gives a salt, the structure may show the parent alone.

What was measured:
[1] = biological target: T1, Alpha-1A adrenergic receptor (Rattus norvegicus, UniProt P43140)
T1 sequence (P43140 whole entry): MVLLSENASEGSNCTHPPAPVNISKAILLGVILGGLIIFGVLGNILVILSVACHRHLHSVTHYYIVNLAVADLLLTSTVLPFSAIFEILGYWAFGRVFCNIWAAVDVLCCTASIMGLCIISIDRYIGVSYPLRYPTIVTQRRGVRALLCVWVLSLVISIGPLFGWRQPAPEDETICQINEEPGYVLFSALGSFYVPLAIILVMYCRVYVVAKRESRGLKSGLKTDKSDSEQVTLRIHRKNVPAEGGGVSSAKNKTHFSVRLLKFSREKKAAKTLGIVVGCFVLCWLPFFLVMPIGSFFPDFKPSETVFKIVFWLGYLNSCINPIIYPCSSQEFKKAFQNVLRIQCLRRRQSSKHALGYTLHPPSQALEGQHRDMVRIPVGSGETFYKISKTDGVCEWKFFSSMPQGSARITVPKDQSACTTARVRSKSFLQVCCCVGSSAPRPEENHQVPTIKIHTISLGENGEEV

D(2) dopamine receptor = D(2) dopamine receptor (Rattus norvegicus, UniProt P61169)
[2] = biological target: T2, Muscarinic acetylcholine receptor M2 (Rattus norvegicus, UniProt P10980)
T2 sequence (P10980 whole entry): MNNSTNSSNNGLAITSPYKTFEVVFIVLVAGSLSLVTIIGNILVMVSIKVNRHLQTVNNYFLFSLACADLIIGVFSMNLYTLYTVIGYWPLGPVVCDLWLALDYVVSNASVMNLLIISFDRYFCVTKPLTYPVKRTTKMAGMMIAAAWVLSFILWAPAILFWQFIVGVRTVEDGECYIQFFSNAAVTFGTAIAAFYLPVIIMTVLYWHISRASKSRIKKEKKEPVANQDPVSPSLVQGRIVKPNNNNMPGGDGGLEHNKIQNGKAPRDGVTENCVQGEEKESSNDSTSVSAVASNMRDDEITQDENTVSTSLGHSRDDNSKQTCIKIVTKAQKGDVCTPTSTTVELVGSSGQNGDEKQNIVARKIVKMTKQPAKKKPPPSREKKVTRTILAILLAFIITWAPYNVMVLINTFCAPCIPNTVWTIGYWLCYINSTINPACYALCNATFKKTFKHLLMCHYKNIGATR

[3] = biological target: 5-hydroxytryptamine receptor 2A (Rattus norvegicus, UniProt P14842)
[4] = biological target: Norepinephrine transporter (Rattus norvegicus, UniProt Q9JIA2)
[5] = biological target: Sodium-dependent serotonin transporter (Rattus norvegicus, UniProt P31652)
Sequence of Sodium-dependent serotonin transporter (P31652 whole entry): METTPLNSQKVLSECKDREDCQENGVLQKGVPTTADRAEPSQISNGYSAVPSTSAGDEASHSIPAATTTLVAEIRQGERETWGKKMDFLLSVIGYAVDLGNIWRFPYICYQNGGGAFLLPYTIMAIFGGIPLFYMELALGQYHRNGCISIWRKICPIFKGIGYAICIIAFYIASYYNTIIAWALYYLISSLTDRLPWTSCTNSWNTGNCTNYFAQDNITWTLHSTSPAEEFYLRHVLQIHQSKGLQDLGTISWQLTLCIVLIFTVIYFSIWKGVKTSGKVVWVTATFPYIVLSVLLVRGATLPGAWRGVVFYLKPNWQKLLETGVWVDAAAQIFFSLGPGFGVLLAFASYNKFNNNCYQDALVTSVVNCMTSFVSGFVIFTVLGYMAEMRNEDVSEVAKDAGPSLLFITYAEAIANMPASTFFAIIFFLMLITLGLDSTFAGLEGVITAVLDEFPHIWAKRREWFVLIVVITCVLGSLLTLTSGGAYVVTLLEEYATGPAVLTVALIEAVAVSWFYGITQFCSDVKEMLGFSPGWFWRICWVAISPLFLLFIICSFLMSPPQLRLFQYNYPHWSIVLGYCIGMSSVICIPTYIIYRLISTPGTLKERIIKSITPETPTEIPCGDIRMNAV

Sequence of 5-hydroxytryptamine receptor 2A (P14842 whole entry): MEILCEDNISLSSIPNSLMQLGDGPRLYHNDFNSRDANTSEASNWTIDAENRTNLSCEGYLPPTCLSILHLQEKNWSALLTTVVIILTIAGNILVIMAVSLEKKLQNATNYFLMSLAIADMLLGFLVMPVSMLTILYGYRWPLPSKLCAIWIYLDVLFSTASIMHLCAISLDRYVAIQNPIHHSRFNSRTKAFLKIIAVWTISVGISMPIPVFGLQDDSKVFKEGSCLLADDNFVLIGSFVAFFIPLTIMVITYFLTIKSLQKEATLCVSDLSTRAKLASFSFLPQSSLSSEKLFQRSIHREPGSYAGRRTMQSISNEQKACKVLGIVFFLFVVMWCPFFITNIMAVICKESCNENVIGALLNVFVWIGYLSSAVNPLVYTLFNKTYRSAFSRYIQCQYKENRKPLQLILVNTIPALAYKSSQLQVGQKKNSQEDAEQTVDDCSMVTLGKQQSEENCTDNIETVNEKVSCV
Sequence of D(2) dopamine receptor (P61169 whole entry): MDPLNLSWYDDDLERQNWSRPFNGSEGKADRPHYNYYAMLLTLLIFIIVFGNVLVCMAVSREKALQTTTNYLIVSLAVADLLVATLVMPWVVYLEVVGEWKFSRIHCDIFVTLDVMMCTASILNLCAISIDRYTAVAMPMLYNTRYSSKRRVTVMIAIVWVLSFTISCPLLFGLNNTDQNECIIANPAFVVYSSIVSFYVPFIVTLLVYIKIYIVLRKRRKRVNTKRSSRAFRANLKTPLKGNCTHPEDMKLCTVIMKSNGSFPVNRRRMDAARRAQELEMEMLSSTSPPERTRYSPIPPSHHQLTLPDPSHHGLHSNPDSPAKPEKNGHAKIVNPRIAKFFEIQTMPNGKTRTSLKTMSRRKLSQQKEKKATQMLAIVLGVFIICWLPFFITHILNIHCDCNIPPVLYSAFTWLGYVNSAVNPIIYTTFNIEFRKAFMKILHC

CN(C)CCCC1(c2ccc(F)cc2)OCc2cc(C#N)ccc21 (stereo unspecified) [CITALOPRAM HYDROBROMIDE]
Ki [1]: 1600 nM
Ki (D(2) dopamine receptor): > 10000 nM
Ki [2]: 4800 nM

CNCCC(Oc1ccccc1OC)c1ccccc1 (stereo unspecified) [3-(2-methoxyphenoxy)-N-methyl-3-phenylpropan-1-amine]
Ki [3]: 620 nM
Ki [1]: 4300 nM
Ki (D(2) dopamine receptor): > 10000 nM
Ki [2]: 5000 nM

CNCCCC1(c2ccccc2)SC(C)(C)c2ccccc21 (stereo unspecified) [Talsupram]
Ki [3]: 1600 nM
Ki [4]: 0.79 nM
Ki [5]: 850 nM
Ki [1]: > 10000 nM
Ki (D(2) dopamine receptor): > 10000 nM
Ki [2]: 1300 nM

CN[C@H]1C[C@H](c2ccc(Cl)c(Cl)c2)c2ccccc21 [CAS_96850-13-4]
Ki [1]: 740 nM
Ki (D(2) dopamine receptor): > 10000 nM
Ki [2]: > 10000 nM

CN1Cc2c(N)cccc2[C@H](c2ccccc2)C1 [(+/-)-2-Methyl-4-phenyl-1,2,3,4-tetrahydro-isoquinolin-8-ylamine]
Ki [4]: 6.6 nM
Ki [1]: 1200 nM
Ki (D(2) dopamine receptor): > 10000 nM
Ki [2]: > 10000 nM

COc1ccc2c(c1)CN(C)CC2c1ccc(Cl)c(Cl)c1 (stereo unspecified)
Ki [3]: 550 nM
Ki [4]: 2.3 nM
Ki [1]: 480 nM
Ki (D(2) dopamine receptor): > 10000 nM
Ki [2]: 3700 nM

Fc1ccc(C(OCCN2CCN(C/C=C/c3ccccc3)CC2)c2ccc(F)cc2)cc1
Ki [3]: 3400 nM
Ki [4]: 13 nM
Ki [1]: 2200 nM
Ki (D(2) dopamine receptor): 810 nM
Ki [2]: 2200 nM

CN(C)C[C@@H]1C2CCC(CC2)[C@@H]1c1ccc(Cl)c(Cl)c1
Ki [3]: > 10000 nM
Ki [4]: 5.4 nM
Ki [5]: 51 nM
Ki [1]: > 10000 nM
Ki (D(2) dopamine receptor): 570 nM
Ki [2]: > 10000 nM

CC(NC(C)(C)C)C(=O)c1cccc(Cl)c1 (stereo unspecified) [BUPROPION HYDROCHLORIDE]
Ki [4]: 1500 nM
Ki [1]: > 10000 nM
Ki (D(2) dopamine receptor): > 10000 nM
Ki [2]: > 10000 nM

C(=C\c1ccccc1)/CN1CCN(CCOC(c2ccccc2)c2ccccc2)CC1 [CAS_67469-75-4]
Ki [3]: 1000 nM
Ki [4]: 29 nM
Ki [5]: 1900 nM
Ki [1]: 270 nM
Ki (D(2) dopamine receptor): 2500 nM
Ki [2]: 900 nM
